Key:
[1] = Compatibility test with bisphenol A (BPA) epoxy resin; format: physicochemical; settings: 2.1 g sample + 0.9 g Epikote 828, mixed at 100-130° C., stood at room temperature; time until crystals begin precipitating
Method: A sample (2.1 g) and 0.9 g of a BPA epoxy resin (Epikote 828 manufactured by Japan Epoxy Resin Co., Ltd.) were heated to 100° C. to 130° C. and mixed. When a uniform mixture was confirmed to be obtained, the mixture was cooled to room temperature and allowed to quiescently stand to observe the precipitation of crystals with naked eyes and to determine the time period required for the crystals to begin precipitating. When the crystals began precipitating within 0 to 2 days, the evaluation was rated “C”. When 3 to 6 days were required, the evaluation was rated “B”. When no crystals were precipitated even when 7 days had passed, the evaluation was rated “A”.

[2] = Solubility test in cyclohexanone; settings: saturation solubility at room temperature, liquid chromatography, about 3 days
Method: To 2 g of a sample 1 g of cyclohexanone was added. The mixture was heated to 80° C. to dissolve the sample and cooled to room temperature. Then seed crystals were added thereto and stirred. The solubility (unit: % by mass) of the sample in the solution was measured by liquid chromatography. Such stirring and measurement by liquid chromatography procedures were repeated for about 3 days. The saturation solubility represents the solubility value at which the measured solubility no longer changed.

1,3-bis(glycidyloxyphenyl)adamantane [BP13-EPO, reference compound]
Compatibility with BPA type epoxy resin [1]: C (When the crystals began precipitating within 0 to 2 days, the evaluation was rated “C”)

c1cc(OCC2CO2)c(C2CCCCC2)cc1C12CC3CC(C1)CC(c1ccc(OCC4CO4)c(C4CCCCC4)c1)(C3)C2 (stereo not drawn) [BCHP13-EPO, 1,3-bis(4-glycidyloxy-3-cyclohexylphenyl)adamantane]
Solubility in cyclohexanone [2]: 46 % by mass
Compatibility with BPA type epoxy resin [1]: A (When no crystals were precipitated even when 7 days had passed, the evaluation was rated “A”)

Cc1cc(C23CC4CC(C2)CC(c2cc(C)c(OCC5CO5)c(C)c2)(C4)C3)cc(C)c1OCC1CO1 (stereo not drawn) [BDMP13-EPO, 1,3-bis(4-glycidyloxy-3,5-dimethylphenyl)adamantane]
Solubility in cyclohexanone [2]: 35 % by mass
Compatibility with BPA type epoxy resin [1]: A (When no crystals were precipitated even when 7 days had passed, the evaluation was rated “A”)

Cc1cc(C2(c3cc(C)c(OCC4CO4)c(C)c3)C3CC4CC(C3)CC2C4)cc(C)c1OCC1CO1 (stereo not drawn) [BDMP22-EPO, 2,2-bis(4-glycidyloxy-3,5-dimethylphenyl)adamantane]
Solubility in cyclohexanone [2]: 32 % by mass
Compatibility with BPA type epoxy resin [1]: B (When 3 to 6 days were required, the evaluation was rated “B”)

Cc1cc(C23CC4CC(C2)CC(c2ccc(OCC5CO5)c(C)c2)(C4)C3)ccc1OCC1CO1 (stereo not drawn) [BMP13-EPO, 1,3-bis(4-glycidyloxy-3-methylphenyl)adamantane]
Solubility in cyclohexanone [2]: 33 % by mass
Compatibility with BPA type epoxy resin [1]: B (When 3 to 6 days were required, the evaluation was rated “B”)
